Results as given in patent US20240369539A1, “AN ADHERENT CELL CULTURE METHOD FOR GENERATING TIGHT JUNCTION BETWEEN CELLS AND ITS PRODUCT APPLICATION” (ZHEJIANG UNIVERSITY, priority 2021, published 2024).

What was measured:
[1] = tested on: in vitro blood-brain barrier model (membranous cell sheet formed by endothelial cells)
[2] = tested on: in vitro blood-brain barrier model (membranous cell sheet formed by endothelial cells); assay: test of a blood-brain barrier toxic drug on the in vitro blood-brain barrier model; settings: FIG. 20
Experimental: A test of a blood-brain barrier toxic drug is carried out to determine the response of the blood-brain barrier model constructed in the embodiment to the blood-brain barrier toxic drug.

Structure (SMILES) | content detected in the lower chamber [1] | barrier function of the blood-brain barrier model ([2]; after self-recovery for 24 hours following drug treatment) | barrier function of the blood-brain barrier model ([2]; after treatment with the blood-brain barrier toxic drug)
N[C@@H](Cc1ccc(O)c(O)c1)C(=O)O [L-dopamine] | significantly higher than that of the dopamine | – | –
NCCc1ccc(O)c(O)c1 [dopamine] | the content of the L-dopamine detected in the lower chamber is significantly higher than that of the dopamine | – | –
CN[C@@H](C)Cc1ccccc1 [methamphetamine] | – | significantly improved | significantly reduced
